# Source: publication PMC4373826, “Antiviral Effect of Methylated Flavonol Isorhamnetin against Influenza” (PLoS ONE, 2015)
# Assays:
# [1] = test system: influenza A/PR/8/34 (H1N1); test: microbe, parasite or virus in culture; conditions: MDCK
# [2] = Cytotoxicity assay (EZ-Cytox) in MDCK cells; type: cell-based, canine; conditions: dog; MDCK cells, 48 hr
# Experimental: (§1) To determine the 50% cytotoxic concentration (CC50) for each of the tested flavonoid compounds, MDCK cells were seeded onto 96-well plates (NUNC, Penfield, NY, USA) at a density of 1 × 10^4 cells per well and incubated overnight for 80% confluence. MDCK cells were washed twice with PBS and the culture medium was replaced with medium containing serially diluted flavonoids (concentrations from 10μM up to 300 μM) for 48 hr at 37°C in a 5% CO2atmosphere. After the incubation period, the flavonoid-containing media was replaced with new media containing 10% EZ-Cytox (Daeil Lab Service, Seoul, South Korea), and the cells were incubated in the dark for 3 hr at 37°C in a 5% CO2 atmosphere. The optical density was measured at 480 nm using an x-Mark spectrophotometer (Bio-Rad, Hercules, CA, USA). Cytotoxicity was estimated by comparing the cell survival rate of the flavonoids-treated cells and the DMSO-treated cells with the control (virus-untreated) cells. The control cell values were arbitrarily set as the 100% survival rate. The treated cells values were normalized to the control cell values. The calculation of CC50 was carried out as described in detail in S1 Text.
# (§2) The 50% cytotoxic concentration (CC50) was calculated according to the following equation:
# (§3) Cytotoxicity (%) = [100-(ODt/ODs)] x100
# (§4) ODt: The optical density (OD) of cells treated with the tested flavonoids.
# (§5) ODs: The OD of cells treated with the control solvent (0.2 % DMSO).
# (§6) After obtaining the results, we calculated the concentration that induces 50% cell death using the following equation:
# (§7) (X2 - X1) X (50-Y1) / (Y2 - Y1) + X1. Where, X1 represents the lower concentration used in this experiment, while X2 represents the higher concentration. Y1 represents the mean of the percentage of the viable cells at X1 concentration. On the other hand, Y2 represents the mean of the percentage of the viable cells at X2 concentration.”
# MDCK cells = test: Cytotoxicity assay (EZ-Cytox) in MDCK cells; type: cell-based, canine; conditions: especially at 50μM and 100μM
# Experimental: as §1, §2, §3, §4, §5, §6, §7
# [3] = test system: influenza A/PR/8/34 (H1N1); test: in vitro; conditions: dog, SI (selective index, CC50/EC50), Post-treatment
# [4] = test system: influenza A/PR/8/34 (H1N1); type: cell-based, influenza A virus; conditions: post-treatment 48 hr
# [5] = test system: influenza A/PR/8/34 (H1N1); conditions: post-treatment
Structure (SMILES),"EC50 ([1]; 48 h, Post-treatment)",CC50 at 48 h [2],cell viability of MDCK cells (MDCK cells),selectivity ratio [3],virus titer in HA assay (virus yield reduction) [4],influenza virus-induced cell death [5],"EC50 ([1]; 0.5 h, Co-treatment (0.5 hr))","EC50 ([1]; 1 h, Co-treatment (1 hr))","EC50 ([1]; 2 h, Co-treatment (2 hr))",EC50 ([1]; Pre-treatment (1 hr)),EC50 ([1]; Pre-treatment (12 hr)),EC50 ([1]; Pre-treatment (24 hr))
"COc1ccc(-c2cc(=O)c3c(O)cc(O)cc3o2)cc1O [Diosmetin, diosmetin]",124 µM,,,,,,,,,,,
"O=C1C[C@@H](c2ccc(O)c(O)c2)Oc2cc(O)cc(O)c21 [Eriodictyol, eriodictyol]",115 µM,256 µM,significant decrease,2,,,,,,,,
"O=c1c(O)c(-c2ccc(O)cc2)oc2cc(O)cc(O)c12 [Kaempferol, kaempferol]",35 µM,245 µM,,7,significantly decreased,apparent suppression,,,,,,
"O=c1c(O)c(-c2ccc(O)c(O)c2)oc2cc(O)cc(O)c12 [Quercetin, quercetin]",30 µM,> 265 µM,,> 9,significantly decreased,apparent suppression,106 µM,62 µM,43 µM,78 µM,85 µM,98 µM
